{"source": "patent US20190328755A1", "about": "“METHODS OF TREATING COMPLEX REGIONAL PAIN SYNDROME (CRPS) OR SYMPTOMS COMPRISING ADMINISTRATION OF […]” (GRUNENTHAL GMBH, priority 2018, published 2019)", "tested_on": "subjects with CRPS", "assay": "Open-label single-arm Phase III trial of intravenous neridronic acid, average pain intensity (11-point NRS)", "assay_type": "in vivo, human", "conditions": "subjects with CRPS duration >2 years; 400 mg i.v. cumulative, 4 infusions of 240 min; interim look", "description": "A multi-site, open-label, single-arm, Phase III safety trial of intravenous neridronic acid at a cumulative dose of 400 mg was conducted in subjects with CRPS to investigate the safety and tolerability of intravenous neridronic acid in subjects with CRPS.\nThe trial product was supplied in glass vials, each containing 111.2 mg sodium neridronate hemihydrate (equivalent to 100 mg neridronic acid) in a total volume of 8 mL. For each infusion, before use, the trial product was diluted in sterile normal saline (0.9% NaCl, e.g., United States Pharmacopeia (USP) grade saline for injection) to a volume of approximately 500 mL and administered by slow intravenous infusion (240 minutes [maximum 260 minutes]) at day 1, day 4, day 7 and day 10, resulting in a total dose of 400 mg neridronic acid.\nIn addition, the trial provided supportive data on efficacy and long-term effectiveness of neridronic acid of 400 mg. Average, worst (both with a 24-hour recall period) and current pain intensity was measured at the trial visits using an 11-point numerical rating scale on a tablet computer.\nThe trial included an enrollment period lasting up to 60 days, a treatment period consisting of 4 infusions of neridronic acid over 10 days, and a follow-up period of approximately 50 weeks. […]"}
{"smiles": "NCCCCCC(O)(P(=O)(O)O)P(=O)(O)O", "note": "[neridronic acid]", "values": [{"measurement": "mean (standard deviation) change from baseline to Day 84 in average pain intensity (NRS)", "value": "−1.22 (2.197)"}]}
